Measurements published in patent US20230201214A1, “LPXC INHIBITOR, FORMULATIONS, AND USES THEREOF” (priority 2020, published 2023).
Converted amounts (≈) assume the structure as drawn.

How the values were obtained:
[1] = test system: N. cyriacigeorgica complex NEQAS 3295; experiment: Bacterial susceptibility testing (MIC, broth microdilution); type: cell-based; conditions: Nocardia cyriacigeorgica
Protocol: (§1) Minimal inhibitory concentrations (MIC) against a variety of gram-negative and gram-positive bacterial strains were determined by the broth microdilution method in accordance with the Clinical and Laboratory Standards Institute (CLSI) guidelines. In brief, organism suspensions were adjusted to a 0.5 McFarland standard to yield a final inoculum between 3×10^5 and 7×10^5 colony-forming units (CFU)/mL. Drug dilutions and inocula were made in sterile, cation adjusted Mueller-Hinton Broth (Beckton Dickinson). An inoculum volume of 100 μL was added to wells containing 100 μL. of broth with 2-fold serial dilutions of drug. All inoculated microdilution trays were incubated in ambient air at 35° C. for 18-24 h. Following incubation, the lowest concentration of the drug that prevented visible growth (OD600 nm<0.05) was recorded as the MIC. Performance of the assay was monitored by the use of laboratory quality-control strains and levofloxacin, a compound with a defined MIC spectrum, in accordance with CLSI guidelines.

[2] = test system: gram-negative and gram-positive bacterial strains; experiment: Bacterial susceptibility testing, whole panel; type: cell-based
Protocol: as §1

[3] = Oral solution formulation excipient screening (solubility estimated by HPLC); type: physicochemical
Description: The solubility of Compound A was estimated by HPLC in multiple potential excipients for a solution formulation (Table 4).

## N#CC1CN(C[C@@H](Cc2ncnc(O)c2O)c2ccc(C#Cc3ccc(CN4CCOCC4)cc3)cc2)C1 [Compound A, (S)-1-(3-(5,6-dihydroxypyrimidin-4-yl)-2-(4-((4-(morpholinomethyl)phenyl)ethynyl)phenyl)propyl)azetidine-3-carbonitrile]
[1]
  MIC: > 64 µg/mL
[2]; from MIC panel of Table 1
  selectivity for gram-negative bacteria over gram-positive bacteria: high selectivity
[3]; Capmul MCM, oil or lipid
  solubility: 330 µg/mL (≈ 648 µM)
[3]; Cremophor RH40, aqueous with cosolvent or surfactant or cyclodextrin
  solubility: 900 µg/mL (≈ 1770 µM)
[3]; HCl solution (pH 0.5), pH 0.5, simulated gastric fluid
  solubility: ≥ 45000 µg/mL
[3]; Labrafil M 1944, oil or lipid
  solubility: 120 µg/mL (≈ 235 µM)
[3]; Lactic acid, organic solvent or mixture
  solubility: ≥ 20000 µg/mL
[3]; Maisine CC, oil or lipid
  solubility: 130 µg/mL (≈ 255 µM)
[3]; Oleic acid, oil or lipid
  solubility: 480 µg/mL (≈ 942 µM)
[3]; Peppermint oil, oil or lipid
  solubility: 50 µg/mL (≈ 98.1 µM)
[3]; Polysorbate 20, aqueous with cosolvent or surfactant or cyclodextrin
  solubility: 850 µg/mL (≈ 1670 µM)
[3]; Polysorbate 80, aqueous with cosolvent or surfactant or cyclodextrin
  solubility: 620 µg/mL (≈ 1220 µM)
[3]; Propylene glycol (pH 0.5), pH 0.5, organic solvent or mixture
  solubility: ≥ 45000 µg/mL
[3]; Propylene glycol, organic solvent or mixture
  solubility: < 10000 µg/mL
[3]; SBEβCD (30% w/v), pH 0.5, pH 0.5, aqueous with cosolvent or surfactant or cyclodextrin
  solubility: ≥ 45000 µg/mL
[3]; SBEβCD (30% w/v), pH 3, pH 3, aqueous with cosolvent or surfactant or cyclodextrin
  solubility: < 10000 µg/mL
[3]; Solutol HS 15, aqueous with cosolvent or surfactant or cyclodextrin
  solubility: 630 µg/mL (≈ 1240 µM)
[3]; Soybean oil, oil or lipid
  solubility: 20 µg/mL (≈ 39.2 µM)
[3]; Transcutol (pH 0.5), pH 0.5, organic solvent or mixture
  solubility: ≥ 10000 µg/mL
[3]; Transcutol, organic solvent or mixture
  solubility: < 10000 µg/mL
[3]; Vitamin E TPGS, aqueous with cosolvent or surfactant or cyclodextrin
  solubility: < 10000 µg/mL
[3]; aqueous with cosolvent or surfactant or cyclodextrin, Gelucire 44/14 (surfactant)
  solubility: < 10000 µg/mL
[3]; most excipients, acidifying the excipients led to higher solubility
  solubility in excipients, overall: Low solubility
[3]; organic solvent or mixture, PEG400 (co-solvent)
  solubility: < 10000 µg/mL

## C[C@H]1COc2c(N3CCN(C)CC3)c(F)cc3c(=O)c(C(=O)O)cn1c23 [Levofloxacin]
[1]
  MIC: 8 µg/mL (≈ 22.1 µM)

## C[C@@H](O)[C@H]1C(=O)N2C(C(=O)O)=C(S[C@@H]3CN[C@H](C(=O)N(C)C)C3)[C@H](C)[C@H]12 [Meropenem, reference compound]
[1]
  MIC: > 1 µg/mL
[2]; various strains of gram-positive bacteria
  activity against gram-positive bacteria: do have activity
